Test results from US11723589B2 (The General Hospital Corporation, priority 2010, dated 2023).
Values joined by “and” are separate entries in the source; they are usually repeats but may differ in a detail not shown here. Equal entries are not always repeated. “Also recorded” adds a separate entry of the source.

Assays:
[1] = tested on: Male Sprague-Dawley rats; assay: Return of righting during continuous isoflurane general anesthesia; type: in vivo, rat
Excerpt: Anesthetizing Protocol. Rats were anesthetized in an induction chamber with 2-3% isoflurane in oxygen prior to placement of a lateral tail vein intravenous catheter (24 gauge, 19 mm). A rectal temperature probe was inserted and the animal was placed in a cylindrical acrylic anesthetizing chamber. The chamber was custom-built and equipped with ports for anesthetic gas delivery, sampling, and scavenging, as well as intravenous drug administration. A heating pad was placed under the chamber to keep the animal warm, and the body temperature was kept between 36.5° C. and 37.4° C.
The rat was positioned supine in the anesthetizing chamber and the inhaled concentration of isoflurane was initially fixed at 2.0% for 20 minutes, then reduced to 0.8% over 15-20 minutes, and then maintained at 0.8% for 40 minutes. If the rat made any purposeful movement, the isoflurane concentration was increased by 0.1% and maintained for another 40 minutes. This process was repeated until the final dose of isoflurane sufficient to maintain loss of righting reflex was established, and this dose was administered throughout the remainder of the experiment. This protocol was based on previously published methods described by Alkire et al.^4,11 After the final 40-minute equilibration period, normal saline (2 ml) was administered and the rectal temperature probe was removed. Five minutes later, methylphenidate was administered.
Prism 4.03 (Graphpad Software, San Diego, Calif.) and Matlab (Mathworks, Natick, Mass.) were used for statistical analysis and where possible, results are reported in terms of 95% confidence intervals based on z-tests, t-tests or Mann-Whitney tests. […] For this computation the inventors assumed a binomial model as the sampling density or likelihood function for the propensity of animals in a given group to have return of the righting response. The inventors took as the prior density for each group the uniform density on the interval (0, 1) because it is uninformative. Because of the conjugacy between the prior and the likelihood the posterior density for each group is a beta density.^17 The posterior densities for the differences in the proportion of animals that had return of righting were then computed by using standard Matlab simulation procedures. Instead of p-values for the Bayesian analyses the inventors computed the posterior probability that the propensity to right was greater in on group compared to the other.

[2] = tested on: mice; conditions: uninstrumented mice, rotating anesthetizing chamber; cited from earlier work
[3] = tested on: rats; assay: D-MPH versus L-MPH reversal of isoflurane anesthesia, loss of righting reflex (LORR); type: in vivo, rat; conditions: for rats with restoration of consciousness: intravenous dose of 0.5 mg/kg; for rats with restoration of consciousness / rate of % recovery of consciousness / time to emergence, D-MPH compared with L-MPH: isoflurane anesthesia; for reversal of isoflurane-induced general anesthesia: intravenous, rat animal model; for rate of % recovery of consciousness / time to emergence, D-MPH compared with L-MPH: FIG. 7
Excerpt: Pure D-MPH (Focalin) is currently available in oral form for Attention Deficit Hyperactivity Disorder (ADHD), but it is not available for intravenous use.

[4] = tested on: Male Sprague-Dawley rats; assay: Time to emergence after a standardized isoflurane general anesthetic; type: in vivo, rat
Excerpt: Animal Care and Use. Animal studies were approved by the Subcommittee on Research Animal Care, Massachusetts General Hospital, Boston, Mass. Male Sprague-Dawley rats (Charles River Laboratories, Wilmington, Mass.) weighing 351-565 grams were used. […] Separate groups of animals were used for the electroencephalogram (4 rats), plethysmography (4 rats), and blood gas studies (6 rats). In animals that underwent multiple experiments, each animal was provided with at least 3 days of rest between experiments. Animals were kept on a standard day-night cycle (lights on at 7 AM, and off at 7 PM), and all experiments were performed during the day.
Preparation and Delivery of Drugs. […] Droperidol was diluted in normal saline to a final volume of 0.5 ml prior to administration. […]

[5] = tested on: Male Sprague-Dawley rats; assay: Electroencephalogram recording and spectral analysis during continuous isoflurane; type: in vivo, rat; conditions: isoflurane 1.0%
Protocol: Electroencephalogram electrode placement, recording, and spectral analysis. Extradural electroencephalogram electrodes were surgically implanted at least 7 days prior to recording. General anesthesia was induced with xylazine (5-10 mg/kg IP) and ketamine (50-100 mg/kg IP), and supplemented with isoflurane (1-2%). A microdrill was used to make four holes at the following stereotactic coordinates: A0L0, A6L3, A6L-3, and A10L2 relative to the lambda.^12 Polytetrafluoroethylene coated, 200 μm diameter stainless steel electrode wires (A-M Systems, Sequim, Wash.) were inserted and secured with small stainless steel screws, and permanently fixed with dental acrylic cement. Carprofen (5 mg/kg SC) was administered for analgesia on the day of surgery, as well as on post-operative days 1, and 2. The potential difference between electrodes A0L0 and A6L3, or between electrodes A0L0 and A6L-3 (whichever gave less motion artifact), was referenced to A10L2 and recorded using a QP511 Quad AC Amplifier System (Grass Instruments, West Warwick, R.I.) and a USB-6009 14-bit data acquisition board (National Instruments, Austin, Tex.). Data was filtered between 0.3-100 Hz. No line filter was used. The sampling rate was 512 Hz. After baseline recordings were taken for 10 minutes while awake, rats were anesthetized with isoflurane and placed in the anesthetizing chamber. […] Therefore the inventors performed the electroencephalogram experiments in the prone position with the isoflurane dose fixed at 1.0%. These modifications allowed us to minimize electroencephalogram motion artifacts without restraining the animals. After a minimum isoflurane exposure of 40 minutes, normal saline was administered and the temperature probe was removed. Five minutes later, methylphenidate was administered. Spectral analysis was performed using Matlab 7.11 (Mathworks, Natick, Mass.) and the Chronux software (Cold Spring Harbor, N.Y.). 13 Spectrograms were calculated using sliding windows of 2 sec duration stepped through 0.05 sec. For each window, multitaper spectrum estimation was performed using 5 tapers. […]

[6] = tested on: Male Sprague-Dawley rats; assay: Arterial blood gas analysis during isoflurane general anesthesia; type: in vivo, rat
Protocol: (§1) Arterial Blood Gas and Hemodynamic Recordings. Rats with femoral artery catheters (Charles River Laboratories, Wilmington, Mass.) were placed in the anesthetizing chamber after lateral tail vein IV catheter placement. The isoflurane dose was kept constant at 1.5%. Mean arterial blood pressure and heart rate were measured using a pressure transducer (TruWave, Edwards Life Sciences, Irvine, Calif.) interfaced with a custom-built amplifier (AD620 operational amplifier, Jameco Electronics, Belmont, Calif.). […] Samples were promptly analyzed using CG4+ cartridges in a Vetscan iStat 1 (Abaxis, Union City, Calif.) blood gas analyzer.
To provide a conservative check on the assessments made by the 95% confidence intervals and the parametric tests and non-parametric tests were also used to assess statistical significance. The Mann-Whitney test was used to test the hypothesis that methylphenidate hastens time to emergence from isoflurane general anesthesia, and to test the dose-dependence of methylphenidate on time to righting during continuous isoflurane general anesthesia. A paired t-test was used to test the hypothesis that methylphenidate produces a respiratory alkalosis during isoflurane general anesthesia. The inventors used the two-sided Kolmogorov-Smirnov test with a Bonferonni correction to compare spectra in animals before and after receiving methylphenidate. The inventors considered a result to be statistically significant based on the 95% confidence intervals comparing two groups if zero was not in the interval, based on hypothesis tests if the p-values were less than 0.05 or in the case of the Bayesian analyses, if the relevant posterior probability was greater than 0.95.

[7] = tested on: Male Sprague-Dawley rats; assay: Hemodynamic recordings (mean arterial blood pressure, heart rate) during isoflurane general anesthesia; type: in vivo, rat; conditions: individual animals, isoflurane 1.5%
Protocol: as §1

[8] = tested on: rats; assay: Time to emergence after a single dose of propofol; type: in vivo, rat; conditions: propofol 8 mg/kg IV, MPH 5 mg/kg IV 45 sec later; mean±SE; n=6
Protocol: For the first experiment, a lateral tail vein IV catheter was placed in rats under isoflurane anesthesia. […] Time to emergence was defined as the time until restoration of righting occurred. Statistical analysis was performed using the Mann-Whitney test.

[9] = tested on: rats; assay: Restoration of righting and EEG during continuous propofol anesthesia; type: in vivo, rat; conditions: MPH 5 mg/kg IV, continuous propofol infusion
Protocol: For the second experiment, 2 IV catheters were placed and a continuous propofol infusion was started in rats with pre-implanted EEG electrodes. After establishing the minimum plasma concentration of propofol required to maintain loss of righting, the second IV catheter was flushed with NS, and 5 minutes later MPH (5 mg/kg) was administered.

[10] = target: norepinephrine transporter (Homo sapiens, UniProt P23975); conditions: read-out: Ki, norepinephrine transporter; cited from earlier work
[11] = tested on: Male Sprague-Dawley rats; assay: Plethysmography during isoflurane general anesthesia; conditions: for Change in mean RR: after vs before methylphenidate 5 mg/kg IV
Excerpt: Plethysmography. Rats were placed in a custom built plethysmography chamber and the isoflurane concentration in the chamber was maintained at 1.5%. […] A differential pressure transducer and demodulator (Models CD15 and MP45-14-871; Validyne Engineering, Northridge, Calif.) were used to convert the chamber pressure to an analog signal. The signal was high pass filtered at 15 sec, acquired at 100 Hz, and analyzed in four second epochs using a USB-6009 data acquisition board (National Instruments, Austin, Tex.) and LabView Software (version 8.5 for Macintosh). Chamber carbon dioxide levels were maintained at or less than 0.5% in the open flow configuration. A heating pad was used to warm the rat from beneath. Chamber air temperature and relative humidity were measured with a thermometer-hygrometer (Fisher Scientific, Pittsburgh, Pa.) and used to estimate tidal volumes during intermittent chamber closure using methods described by Drorbaugh et al.^16

[12] = tested on: mice; conditions: cited from earlier work
[13] = tested on: rats; conditions: 3 mg/kg of droperidol; cited from earlier work
[14] = children treated with racemic methylphenidate; cited from earlier work
[15] = arterial blood 15 minutes after methylphenidate, isoflurane 1.5%, n = 6
[16] = after vs before methylphenidate 5 mg/kg IV, listed as Methylphenidate
[17] = individual animals pretreated with droperidol (0.5 mg/kg IV), isoflurane 1.5%
[18] = individual animals pretreated with normal saline, isoflurane 1.5%

Sequence of norepinephrine transporter (P23975 whole entry): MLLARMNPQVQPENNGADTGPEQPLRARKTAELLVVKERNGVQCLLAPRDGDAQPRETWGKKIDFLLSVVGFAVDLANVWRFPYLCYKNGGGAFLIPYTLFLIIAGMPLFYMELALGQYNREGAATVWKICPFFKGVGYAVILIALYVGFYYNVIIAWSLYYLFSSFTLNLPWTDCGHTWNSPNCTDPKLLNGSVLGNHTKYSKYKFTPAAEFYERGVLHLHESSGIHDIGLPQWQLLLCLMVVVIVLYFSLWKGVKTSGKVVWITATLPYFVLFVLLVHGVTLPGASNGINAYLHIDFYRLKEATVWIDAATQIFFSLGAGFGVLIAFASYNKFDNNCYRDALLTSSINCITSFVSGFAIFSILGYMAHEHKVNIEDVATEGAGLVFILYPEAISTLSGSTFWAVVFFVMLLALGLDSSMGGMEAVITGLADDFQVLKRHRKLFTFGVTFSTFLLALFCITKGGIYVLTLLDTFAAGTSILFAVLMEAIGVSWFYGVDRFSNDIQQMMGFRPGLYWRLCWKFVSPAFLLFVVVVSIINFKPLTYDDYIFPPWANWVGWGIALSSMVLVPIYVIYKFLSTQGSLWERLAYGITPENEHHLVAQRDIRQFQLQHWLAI

SMILES: FC(F)OC(Cl)C(F)(F)F (stereo not shown) [isoflurane]
- dose of isoflurane sufficient to maintain loss of righting ([1]; inhaled, rats, mean±SD): 0.9%±0.1% and 0.9%
- dose for loss of righting [2]: 0.81%

SMILES: COC(=O)[C@@H](c1ccccc1)[C@@H]1CCCCN1 [L-MPH, L-threo-methylphenidate]
- rats with restoration of consciousness [3]: 33%
- reversal of isoflurane-induced general anesthesia [3]: rapidly reversed isoflurane-induced general anesthesia

SMILES: COC(=O)[C@H](c1ccccc1)[C@H]1CCCCN1 (racemic) [methylphenidate]
- median time to emergence (termination of isoflurane to return of righting) ([4]; methylphenidate 5 mg/kg IV five minutes before end of 45 min isoflurane 1.5%, n=12): 91 s
- median difference in time to emergence versus normal saline ([4]; methylphenidate 5 mg/kg IV, isoflurane 1.5%): 200 s
- median time to righting after methylphenidate ([1]; 0.5 mg/kg IV, continuous inhalation of isoflurane): 348 s
- median time to righting after methylphenidate ([1]; 5 mg/kg IV, continuous inhalation of isoflurane): 181 s
- median difference in time to righting between 0.5 and 5 mg/kg ([1]; continuous inhalation of isoflurane): 173 s
- return of righting after droperidol pretreatment ([1]; droperidol 0.5 mg/kg IV five minutes before methylphenidate 5 mg/kg IV, continuous isoflurane, n=6): None of these animals had return of righting; also recorded: did not induce return of righting in any of the six animals
- signs of arousal ([1]; methylphenidate 0.05 mg/kg IV, continuous isoflurane, six rats): no signs of arousal
- return of righting (rats) ([1]; methylphenidate 0.5 mg/kg IV, continuous isoflurane): 11 of 12
- return of righting (rats) ([1]; methylphenidate 5 mg/kg IV after normal saline, continuous isoflurane): 11 of 12
- time to purposeful movements ([1]; methylphenidate 5 mg/kg, all 12 rats, continuous isoflurane): ≤ 30 s
- reversal of isoflurane-induced general anesthesia [3]: rapidly reversed isoflurane-induced general anesthesia
- EEG changes after methylphenidate with droperidol pretreatment ([5]; droperidol 0.5 mg/kg IV five minutes before methylphenidate 5 mg/kg IV): did not induce electroencephalogram changes consistent with arousal; also recorded: failed to induce these electroencephalogram changes; also recorded: the shift in peak power from delta to theta was absent
- persistence of the active EEG pattern ([5]; methylphenidate 5 mg/kg IV): more than 15 minutes
- P2CO2 after 5 mg/kg IV Methylphenidate (mean) [6, 15]: 35 mmHg
- P2O2 after 5 mg/kg IV Methylphenidate (mean) [6, 15]: 241 mmHg
- pH after 5 mg/kg IV Methylphenidate (mean) [6, 15]: 7.51
- calculated increase in alveolar ventilation (VA) ([6]; from paCO2 pre/post methylphenidate, assuming no change in baseline metabolism): 24±6%
- Change in HR (mean) ([7]; after vs before methylphenidate 5 mg/kg IV): 6 beats per minute and 15 beats per minute
- Change in HR (mean) [7, 16]: −14.2 beats per minute and −7.2 beats per minute and +13.9 beats per minute and +0.72 beats per minute and +0.5 beats per minute and −2.6 beats per minute
- Change in MAP (mean) [7, 16]: +20.5 mmHg and +8.3 mmHg and +3.2 mmHg and −1.4 mmHg and +0.5 mmHg and +7.4 mmHg
- HR after 5 mg/kg IV Methylphenidate (mean) [7]: 386.8 beats per minute and 383.3 beats per minute and 365.5 beats per minute and 360.0 beats per minute and 358.6 beats per minute
- MAP after 5 mg/kg IV Methylphenidate (mean) [7]: 117.1 mmHg and 90.9 mmHg and 91.3 mmHg and 85.2 mmHg and 100.7 mmHg and 90.8 mmHg
- time to emergence (restoration of righting) after a single dose of propofol [8]: 433 ± 24 s
- rats with signs of arousal and restoration of righting within 4 min [9]: 5/6
- time to restoration of righting in the rat with delayed arousal response ([9]; one rat): 25 min
- Ki [10]: 150 nM
- Change in mean RR [11, 17]: +4.4 breaths per minute and +2.2 breaths per minute and +3.6 breaths per minute and +4.9 breaths per minute
- Change in mean RR [11, 18]: +29.2 breaths per minute and +9.8 breaths per minute and +50.36 breaths per minute and +18.9 breaths per minute
- RR after 5 mg/kg IV Methylphenidate (mean) [11, 17]: 86.3 breaths per minute and 78.0 breaths per minute and 84.1 breaths per minute and 75.5 breaths per minute
- RR after 5 mg/kg IV Methylphenidate (mean) [11, 18]: 154 breaths per minute and 112.6 breaths per minute and 94.2 breaths per minute and 153.8 breaths per minute and 116.7 breaths per minute
- changes in tidal volume ([11]; methylphenidate 5 mg/kg IV after droperidol 0.5 mg/kg IV, four rats, one increase, three decreases): 4-17%
- changes in tidal volume ([11]; methylphenidate 5 mg/kg IV after normal saline, isoflurane 1.5%): the changes were small and inconsistent
- changes in tidal volume ([11]; methylphenidate 5 mg/kg IV after normal saline, isoflurane 1.5%, listed as Methylphenidate): tidal volume remained essentially unchanged

SMILES: O=C(CCCN1CC=C(n2c(=O)[nH]c3ccccc32)CC1)c1ccc(F)cc1 [droperidol]
- purposeful movement in response to droperidol ([1]; droperidol 0.5 mg/kg IV, continuous isoflurane, n=6): None of the animals exhibited purposeful movement
- EEG pattern change after droperidol ([5]; droperidol 0.5 mg/kg IV): no appreciable change
- EC50 for loss of righting [12]: 40 mg/kg
- effect on isoflurane potency [13]: no effect on isoflurane potency

SMILES: COC(=O)C(c1ccccc1)C1CCCCN1 [D-MPH, D-threo-methylphenidate]
- rats with restoration of consciousness [3]: 83%
- reversal of isoflurane-induced general anesthesia [3]: rapidly reversed isoflurane-induced general anesthesia
- rate of % recovery of consciousness / time to emergence, D-MPH compared with L-MPH [3]: at a quicker rate than L-MPH
- rate of % recovery of consciousness / time to emergence, D-MPH compared with L-MPH ([3]; listed as D-MGH): faster
- increase in plasma levels [14]: 5 fold
